Measured values: PubChem BioAssay AID2060905 (Molecular Pharmacology Branch, DTP, NCI, 2025)

Tested on: 282377-053-R-J1-PDC complex spheroid viability
Experiment: Anticancer human tumor 282377-053-R-J1-PDC patient-derived colon adenocarcinoma cell line growth inhibition [RAS]
Conditions: for IC50: curve of first compound; for viability, T/C: stronger effect = lower value
Procedure, shortened: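 Multi-cell-type spheroids: tumor cells plus HUVEC endothelial cells and mesenchymal stem cells. RAS-pathway inhibitors were combined with targeted agents, each dosed in half-log steps down from clinical Cmax, or from 10 microM when Cmax was unknown.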

[1] = second compound 0.000949 µM, first compound 0.0316 µM
[2] = second compound 0.000949 µM, first compound 0.1 µM
[3] = second compound 0.000949 µM, first compound 0.316 µM
[4] = second compound 0.000949 µM, first compound 1 µM
[5] = second compound 0.000949 µM, first compound 3.16 µM
[6] = second compound 0.000949 µM, first compound 10 µM
[7] = second compound 0.003 µM, first compound 0.0316 µM
[8] = second compound 0.003 µM, first compound 0.1 µM
[9] = second compound 0.003 µM, first compound 0.316 µM
[10] = second compound 0.003 µM, first compound 1 µM
[11] = second compound 0.003 µM, first compound 3.16 µM
[12] = second compound 0.003 µM, first compound 10 µM
[13] = second compound 0.00949 µM, first compound 0.0316 µM
[14] = second compound 0.00949 µM, first compound 0.1 µM
[15] = second compound 0.00949 µM, first compound 0.316 µM
[16] = second compound 0.00949 µM, first compound 1 µM
[17] = second compound 0.00949 µM, first compound 3.16 µM
[18] = second compound 0.00949 µM, first compound 10 µM
[19] = second compound 0.03 µM, first compound 0.0316 µM
[20] = second compound 0.03 µM, first compound 0.1 µM
[21] = second compound 0.03 µM, first compound 0.316 µM
[22] = second compound 0.03 µM, first compound 1 µM
[23] = second compound 0.03 µM, first compound 3.16 µM
[24] = second compound 0.03 µM, first compound 10 µM
[25] = second compound 0.0949 µM, first compound 0.0316 µM
[26] = second compound 0.0949 µM, first compound 0.1 µM
[27] = second compound 0.0949 µM, first compound 0.316 µM
[28] = second compound 0.0949 µM, first compound 1 µM
[29] = second compound 0.0949 µM, first compound 3.16 µM
[30] = second compound 0.0949 µM, first compound 10 µM
[31] = second compound 0.3 µM, first compound 0.0316 µM
[32] = second compound 0.3 µM, first compound 0.1 µM
[33] = second compound 0.3 µM, first compound 0.316 µM
[34] = second compound 0.3 µM, first compound 1 µM
[35] = second compound 0.3 µM, first compound 3.16 µM
[36] = second compound 0.3 µM, first compound 10 µM
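Further: spheroids exposed to agents for seven days before readout.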
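Wherever viability, T/C is given: luminescence viability as percent of DMSO vehicle control wells.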

Compound CC1(O)CCCC1n1c(=O)c(C(F)F)cc2cnc(NC3CCN(S(C)(=O)=O)CC3)nc21 (stereo unspecified) + CCn1c(-c2cccnc2C(C)OC)c2c3cc(ccc31)N1CCOC(CC(NC(=O)C(C(C)C)N(C)C(=O)C3(F)CCN(C(=O)C#CC(C)(C)N(C)C)CC3)C(=O)N3CCCC(N3)C(=O)OCC(C)(C)C2)C1 has an IC50 (second compound 0.000949 µM) of 6.89 µM, an IC50 (second compound 0.003 µM) of 7.15 µM and an IC50 (second compound 0.00949 µM) of 7.05 µM. It also gave an IC50 (second compound 0.03 µM) of 6.9 µM, an IC50 (second compound 0.0949 µM) of 7.3 µM and an IC50 (second compound 0.3 µM) of 6.87 µM. For the same compound, the viability, T/C [1] was 118%, the viability, T/C [2] was 112% and the viability, T/C [3] was 171%. It also gave a viability, T/C [4] of 144%, a viability, T/C [5] of 159% and a viability, T/C [6] of 6.67%. The viability, T/C [7] was 129%, the viability, T/C [8] was 128% and the viability, T/C [9] was 140%. The viability, T/C [10] was 131%, the viability, T/C [11] was 218% and the viability, T/C [12] was 8.84%. The viability, T/C [13] was 122%, the viability, T/C [14] was 97% and the viability, T/C [15] was 153%. The viability, T/C [16] was 156%, the viability, T/C [17] was 199% and the viability, T/C [18] was 8.76%. It also gave a viability, T/C [19] of 105%, a viability, T/C [20] of 111% and a viability, T/C [21] of 153%. For the same compound, the viability, T/C [22] was 159%, the viability, T/C [23] was 165% and the viability, T/C [24] was 7.79%. It also gave a viability, T/C [25] of 121%, a viability, T/C [26] of 120% and a viability, T/C [27] of 201%. The viability, T/C [28] was 181%, the viability, T/C [29] was 214% and the viability, T/C [30] was 5.91%. The viability, T/C [31] was 111%, the viability, T/C [32] was 129% and the viability, T/C [33] was 146%. The viability, T/C [34] was 155%, the viability, T/C [35] was 158% and the viability, T/C [36] was 6.46%.
CCC(CC)c1cc(NC2CCC(N)C2)n2nccc2n1 (stereo unspecified) + CCn1c(-c2cccnc2C(C)OC)c2c3cc(ccc31)N1CCOC(CC(NC(=O)C(C(C)C)N(C)C(=O)C3(F)CCN(C(=O)C#CC(C)(C)N(C)C)CC3)C(=O)N3CCCC(N3)C(=O)OCC(C)(C)C2)C1 gave an IC50 (second compound 0.000949 µM) of 1.72 µM, an IC50 (second compound 0.003 µM) of 1.67 µM and an IC50 (second compound 0.00949 µM) of 1.76 µM. It also gave an IC50 (second compound 0.03 µM) of 1.85 µM, an IC50 (second compound 0.0949 µM) of 1.61 µM and an IC50 (second compound 0.3 µM) of 1.78 µM. For the same compound, the viability, T/C [1] was 98.1%, the viability, T/C [2] was 105% and the viability, T/C [3] was 81.3%. For the same compound, the viability, T/C [4] was 87%, the viability, T/C [5] was 8.86% and the viability, T/C [6] was 3.59%. For the same compound, the viability, T/C [7] was 86.3%, the viability, T/C [8] was 105% and the viability, T/C [9] was 79.4%. The viability, T/C [10] was 81.4%, the viability, T/C [11] was 10.8% and the viability, T/C [12] was 3.49%. It also gave a viability, T/C [13] of 114%, a viability, T/C [14] of 93.9% and a viability, T/C [15] of 99%. The viability, T/C [16] was 89%, the viability, T/C [17] was 9.93% and the viability, T/C [18] was 2.98%. For the same compound, the viability, T/C [19] was 81.2%, the viability, T/C [20] was 111% and the viability, T/C [21] was 102%. The viability, T/C [22] was 95.3%, the viability, T/C [23] was 10.7% and the viability, T/C [24] was 4.2%. The viability, T/C [25] was 96.8%, the viability, T/C [26] was 110% and the viability, T/C [27] was 89.8%. For the same compound, the viability, T/C [28] was 77.4%, the viability, T/C [29] was 11.2% and the viability, T/C [30] was 4.78%. For the same compound, the viability, T/C [31] was 112%, the viability, T/C [32] was 90.2% and the viability, T/C [33] was 95%. It also gave a viability, T/C [34] of 87.6%, a viability, T/C [35] of 12.6% and a viability, T/C [36] of 4.08%.
In the case of CCN1CCN(Cc2ccc(Nc3ncc(F)c(-c4cc(F)c5nc(C)n(C(C)C)c5c4)n3)nc2)CC1 + CCn1c(-c2cccnc2C(C)OC)c2c3cc(ccc31)N1CCOC(CC(NC(=O)C(C(C)C)N(C)C(=O)C3(F)CCN(C(=O)C#CC(C)(C)N(C)C)CC3)C(=O)N3CCCC(N3)C(=O)OCC(C)(C)C2)C1, the IC50 (second compound 0.000949 µM) is reported as > 1 µM, the IC50 (second compound 0.003 µM) is reported as > 1 µM and the IC50 (second compound 0.00949 µM) is reported as > 1 µM. The IC50 (second compound 0.03 µM) was > 1 µM, the IC50 (second compound 0.0949 µM) was > 1 µM and the IC50 (second compound 0.3 µM) was > 1 µM. For the same compound, the viability, T/C (second compound 0.000949 µM, first compound 0.00316 µM) was 117%, the viability, T/C (second compound 0.000949 µM, first compound 0.01 µM) was 100% and the viability, T/C [1] was 104%. For the same compound, the viability, T/C [2] was 97.3%, the viability, T/C [3] was 137% and the viability, T/C [4] was 229%. For the same compound, the viability, T/C (second compound 0.003 µM, first compound 0.00316 µM) was 137%, the viability, T/C (second compound 0.003 µM, first compound 0.01 µM) was 113% and the viability, T/C [7] was 94.6%. The viability, T/C [8] was 99%, the viability, T/C [9] was 144% and the viability, T/C [10] was 204%. It also gave a viability, T/C (second compound 0.00949 µM, first compound 0.00316 µM) of 111%, a viability, T/C (second compound 0.00949 µM, first compound 0.01 µM) of 106% and a viability, T/C [13] of 122%. It also gave a viability, T/C [14] of 90.4%, a viability, T/C [15] of 156% and a viability, T/C [16] of 208%. The viability, T/C (second compound 0.03 µM, first compound 0.00316 µM) was 104%, the viability, T/C (second compound 0.03 µM, first compound 0.01 µM) was 99.5% and the viability, T/C [19] was 113%. It also gave a viability, T/C [20] of 110%, a viability, T/C [21] of 134% and a viability, T/C [22] of 238%. The viability, T/C (second compound 0.0949 µM, first compound 0.00316 µM) was 102%, the viability, T/C (second compound 0.0949 µM, first compound 0.01 µM) was 109% and the viability, T/C [25] was 120%. It also gave a viability, T/C [26] of 116%, a viability, T/C [27] of 125% and a viability, T/C [28] of 250%. For the same compound, the viability, T/C (second compound 0.3 µM, first compound 0.00316 µM) was 93%, the viability, T/C (second compound 0.3 µM, first compound 0.01 µM) was 106% and the viability, T/C [31] was 87.2%. It also gave a viability, T/C [32] of 124%, a viability, T/C [33] of 160% and a viability, T/C [34] of 221%.
